Source: patent US9394304B2, “Imidazopyridine derivatives” (Hoffmann-La Roche Inc., priority 2013, dated 2016)

Target: h-TRPA1 (Homo sapiens (Human), UniProt O75762)
Assay: Dose response calcium flux (FLIPR) assay, ChanTest hTRPA1-CHO stably transfected cell line, cinnamaldehyde agonist
Format: cell-based
Conditions: for inhibition at 10 µM / inhibition at 30 µM / inhibition at 3 µM / inhibition at 1 µM: % inhibition of the inhibitor control, read-out: Inhibition % @ concentration; for IC50: CHO-K1 Tet-On TRPA1 cells, calcium flux, 100 uM cinnamaldehyde
Method: IC50 Determinations of Exemplified Compounds
Dose Response Assay: ChanTest hTRPA1-CHO Stably Transfected Cell Line
To induce expression, tetracycline was added to blasticidin/zeocin-free media at a final concentration of 1 ug/ml. Experiments were run at 24 hours post induction.
Plating Conditions CHOK1/TRPA1 Cells:
Harvested cells with 0.025% trypsin/EDTA.
Resuspended cells in growth media without selection antibiotics.
Measured cell density and diluted to 2.4×10^5 cells/ml in media containing 1 ug/ml Doxycycline Plate 25 ul/well into 384 well black/clear tissue culture-treated plates.
Incubated overnight at 37° C.
Replacement Buffer: Hank's Balanced Salt Solution, 20 mM HEPES along with 0.005% BSA and 2× Probenecid
Dye Loading Buffer: Cal-3 NW Calcium dye was prepared by dissolving the contents of one vial with 500 ml Hank's Balanced Salt Solution containing 20 mM HEPES. • Control compounds for CHOK1/TRPA1 cells:
AP-18, stock 10 mM, prepare 3.5× compound dilution in a Compound Buffer (HBSS/20 mM HEPES/0.005% BSA)—final concentration 10 uM.
Working solution 4.5× (final 100 uM in Compound Buffer: HBSS/20 mM HEPES/0.005% BSA)
Compounds dilutions were prepared from 5 or 10 mM stock (100% DMSO):
Compounds were tested at either 20 μM three folds dilution 11 steps out or 30 μM two folds dilution 11 steps out.
3 μl of diluted compound were transferred into Weidmann 384-well plate in duplicates side-by-side.
Compound plates were resuspended with 100 ul of HBSS/20 mM HEPES/0.005% BSA buffer (Compound Buffer):
Growth media was removed from the cell plates (20 ul) and 20 ul of the Replacement Buffer was added followed by addition of 25 ul of diluted dye. All three steps were performed using a Plate Washer BioTek 407. The plates were then incubated for 30′ at RT.
After incubation, both the cell and compound plates were brought to the FLIPR and 20 ul of the diluted compounds/antagonist/bk were transferred to the cell plates by the FLIPR. Plates were then incubated for 30′ at room temperature. After 30′ incubation, plates were returned to the FLIPR and 20 ul of 4.5× Cinnamaldehyde was added to the cell plates. During the compound addition as well as agonist addition, fluorescence readings were taken simultaneously from all 384 wells of the cell plate every 1.5 seconds. Five readings were taken to establish a stable baseline, then 20 ul of sample was rapidly (30 ul/sec) and simultaneously added to each well of the cell plate. The fluorescence was continuously monitored before, during and after sample/agonist addition for a total elapsed time of 100 seconds (compound addition) and 120 seconds (agonist addition). Responses (increase in peak fluorescence) in each well following agonist addition was determined. The initial fluorescence reading from each well, prior to ligand stimulation, was used a zero baseline value for the data from that well.

Chain of h-TRPA1 (O75762 whole entry): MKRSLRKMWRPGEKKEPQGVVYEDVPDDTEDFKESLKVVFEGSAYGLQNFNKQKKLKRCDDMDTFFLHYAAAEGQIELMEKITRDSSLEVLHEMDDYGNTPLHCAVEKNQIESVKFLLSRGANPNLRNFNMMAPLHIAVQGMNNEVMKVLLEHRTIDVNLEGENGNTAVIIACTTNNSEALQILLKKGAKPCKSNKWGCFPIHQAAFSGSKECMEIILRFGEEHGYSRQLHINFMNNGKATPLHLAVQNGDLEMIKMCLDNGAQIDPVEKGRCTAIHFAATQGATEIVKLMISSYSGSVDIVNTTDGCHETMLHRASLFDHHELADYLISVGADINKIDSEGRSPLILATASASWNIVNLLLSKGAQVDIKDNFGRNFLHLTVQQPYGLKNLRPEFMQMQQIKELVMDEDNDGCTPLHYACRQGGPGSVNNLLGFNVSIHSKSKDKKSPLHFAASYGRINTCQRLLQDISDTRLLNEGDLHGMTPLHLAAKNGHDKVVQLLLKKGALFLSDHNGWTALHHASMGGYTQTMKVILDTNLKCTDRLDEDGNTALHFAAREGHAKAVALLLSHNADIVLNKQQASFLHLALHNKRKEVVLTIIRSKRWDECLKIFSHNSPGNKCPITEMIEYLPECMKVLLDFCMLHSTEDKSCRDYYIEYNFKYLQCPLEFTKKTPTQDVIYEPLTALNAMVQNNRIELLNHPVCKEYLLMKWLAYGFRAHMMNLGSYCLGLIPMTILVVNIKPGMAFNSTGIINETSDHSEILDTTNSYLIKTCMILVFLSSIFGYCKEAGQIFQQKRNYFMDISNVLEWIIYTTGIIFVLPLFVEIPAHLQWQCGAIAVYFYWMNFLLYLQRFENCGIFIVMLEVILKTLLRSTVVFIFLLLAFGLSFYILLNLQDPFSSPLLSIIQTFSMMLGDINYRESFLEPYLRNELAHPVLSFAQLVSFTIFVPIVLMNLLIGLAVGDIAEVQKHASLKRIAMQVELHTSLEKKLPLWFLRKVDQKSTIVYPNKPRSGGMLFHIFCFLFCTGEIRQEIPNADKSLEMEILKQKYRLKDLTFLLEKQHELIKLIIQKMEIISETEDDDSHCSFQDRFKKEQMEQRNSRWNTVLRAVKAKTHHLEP

SMILES	inhibition at 10 µM [%]	IC50 [nM]	inhibition at 30 µM [%]	inhibition at 3 µM [%]	inhibition at 1 µM [%]
Cc1cc(Br)cn2c(NC(C)(C)C)c(-c3cccc(Cl)c3)nc12 [Example 10, [6-Bromo-2-(3-chloro-phenyl)-8-methyl-imidazo[1,2-a]pyridin-3-yl]-tert-butyl-amine]	100	221			
COC(=O)CNc1c(-c2cccc(F)c2)nc2ccc(F)cn12 [Example 3, [6-Fluoro-2-(3-fluoro-phenyl)-imidazo[1,2-a]pyridin-3-ylamino]-acetic acid methyl ester]		3300	74.3		
CC(C)(C)Nc1c(-c2cc(Cl)cc(Cl)c2)nc2ccc(C(F)(F)F)cn12 [Example 11, tert-Butyl-[2-(3,5-dichloro-phenyl)-6-trifluoromethyl-imidazo[1,2-a]pyridin-3-yl]-amine]		1330	98		
CC(C)Nc1c(-c2cccc(Cl)c2)nc2ccc(C(F)(F)F)cn12 [Example 16, [2-(3-Chloro-phenyl)-6-trifluoromethyl-imidazo[1,2-a]pyridin-3-yl]-isopropyl-amine]		143		100	
Cc1cc2nc(-c3cccc(Cl)c3)c(NC(C)(C)C)n2cc1Br [Example 9, [6-Bromo-2-(3-chloro-phenyl)-7-methyl-imidazo[1,2-a]pyridin-3-yl]-tert-butyl-amine]		229	100		
CC(C)Nc1c(-c2cccc(Cl)c2)nc2ccc(Cl)cn12 [Example 2, [6-Chloro-2-(3-chloro-phenyl)-imidazo[1,2-a]pyridin-3-yl]-isopropyl-amine]		195	100		
C#Cc1cccc(-c2nc3ccc(C(F)(F)F)cn3c2NC(C)(C)C)c1 [Example 12, tert-Butyl-[2-(3-ethynyl-phenyl)-6-trifluoromethyl-imidazo[1,2-a]pyridin-3-yl]-amine]		110			100
CC(C)(C)Nc1c(-c2cccc(C#N)c2)nc2ccc(F)cn12 [Example 18, 3-(3-tert-Butylamino-6-fluoro-imidazo[1,2-a]pyridin-2-yl)-benzonitrile]		20400	80.9		
CC(C)(C)Nc1c(-c2cccc(Cl)c2)nc2c(Br)cc(Cl)cn12 [Example 8, [8-Bromo-6-chloro-2-(3-chloro-phenyl)-imidazo[1,2-a]pyridin-3-yl]-tert-butyl-amine]		1090		100	
C#Cc1cccc(-c2nc3ccc(C(F)(F)F)cn3c2NC(C)C)c1 [Example 15, [2-(3-Ethynyl-phenyl)-6-trifluoromethyl-imidazo[1,2-a]pyridin-3-yl]-isopropyl-amine]	100	82			
CC(C)(C)Nc1c(-c2cccc(Cl)c2)nc2cc(C(F)(F)F)ccn12 [Example 13, tert-Butyl-[2-(3-chloro-phenyl)-7-trifluoromethyl-imidazo[1,2-a]pyridin-3-yl]-amine]		1120	100		
CC(C)(C)Nc1c(-c2cccc(C#N)c2)nc2ccc(Cl)cn12 [Example 6, 3-(3-tert-Butylamino-6-chloro-imidazo[1,2-a]pyridin-2-yl)-benzonitrile]	90	2130			
CC(C)Nc1c(-c2cccc(Cl)c2)nc2ccc(Br)cn12 [Example 1]		132			100
CC(C)(C)Nc1c(-c2cccc(F)c2)nc2ccc(C(F)(F)F)cn12 [Example 4, tert-Butyl-[2-(3-fluoro-phenyl)-6-trifluoromethyl-imidazo[1,2-a]pyridin-3-yl]-amine]		1330		100	
Clc1cccc(-c2nc3ccc(Cl)cn3c2NC2CC2)c1 [Example 7, [6-Chloro-2-(3-chloro-phenyl)-imidazo[1,2-a]pyridin-3-yl]-cyclopropyl-amine]	100	1590			
CCNc1c(-c2cccc(Cl)c2)nc2ccc(C(F)(F)F)cn12 [Example 14, [2-(3-Chloro-phenyl)-6-trifluoromethyl-imidazo[1,2-a]pyridin-3-yl]-ethyl-amine]		2070	100		
CC(C)(C)Nc1c(-c2cccc(C#N)c2)nc2ccc(C(F)(F)F)cn12 [Example 5, 3-(3-tert-Butylamino-6-trifluoromethyl-imidazo[1,2-a]pyridin-2-yl)-benzonitrile]		854	100		
CC(C)(C)Nc1c(-c2cccc(Br)c2)nc2ccc(C(F)(F)F)cn12 [Example 17, [2-(3-Bromo-phenyl)-6-trifluoromethyl-imidazo[1,2-a]pyridin-3-yl]-tert-butyl-amine]	100	264			
